Values of other authors as cited in patent US20070196481A1, “Sustained-release tablet composition” (priority 2002, published 2007).
Structures can show the parent of a compound that is named as a salt.

| solubility in water | Compound |
| --- | --- |
| about 200 mg/ml | CCCNC1CCc2nc(N)sc2C1 (centres unmarked) [pramipexole dihydrochloride] |
| about 250 mg/ml | CCOc1ccccc1OC(c1ccccc1)C1CNCCO1 (centres unmarked) [reboxetine mesylate] |
